Data as given in patent US20110293524A1, “METHODS AND COMPOSITIONS FOR THE REGULATION OF LECTIN COMPLEMENT PATHWAY (LCP)-ASSOCIATED COMPLEMENT ACTIVATION IN HYPERGLYCEMIC MYOCARDIAL DAMAGE” (The Brigham and Women"s Hosptial Inc., priority 2008, published 2011).

Columns and labels:
Assay type in all cases: in vivo
diabetic WT mice [1] = assay: Left ventricular ejection fraction by echocardiography after MI/R (15 min ischemia, 4 h reperfusion); conditions: STZ-diabetic WT mice, insulin 2-6 IU i.p. daily for 2 weeks, vs non-treated diabetic WT mice
Protocol: (§1) All animals used in MI/R experiments were male mice aged 8-12 wk old. C57BL/6 [wildtype (WT)] mice were obtained from Charles River Laboratories (Wilmington, Mass.). MBL null animals 21, back-crossed 8-10 generations onto the C57BL/6 background, were used as previously described^2,22. All procedures were reviewed and conducted in accordance with the Institute's Animal Care and Use Committee (IACUC). Experiments were performed according to the standards and principles set forth in the National Institutes of Health (Guide for the Care and Use of Laboratory Animals-DHHS publication no. (NIH) 85-23, revised 1985). […] Three days after STZ injection and immediately before MI/R studies, the urine glucose was assessed with Glucostix (Diastix, Bayer, Elkhart, Ind.). […]
(§2) Echocardiography was performed after mice had underwent experimental MI/R as described above. It has been shown that in the mouse model of MI/R, myocardial damage via infarct analysis is directly correlated with loss of function as measured by echocardiography^2. […] Ejection fraction (EF) was calculated both via left ventricular M-mode measurements and via long axis length and short axis area measurements of the left ventricle (LV)^24,25. […] In some animals, long axis and short axis area measurements of the LV were assessed prior to MI/R to assess myocardial dimensions under nonischemic conditions.

diabetic WT mice [2] = assay: Left ventricular long and short axis area measurements by echocardiography before MI/R; conditions: STZ-diabetic WT mice, insulin 2-6 IU i.p. daily for 2 weeks
Protocol: as §1, §2

diabetic WT mice [3] = assay: Heart/body weight ratio after 2 weeks of diabetes; conditions: STZ-diabetic WT mice, insulin-treated, no MI/R
Protocol: (§3) All animals used in MI/R experiments were male mice aged 8-12 wk old. C57BL/6 [wildtype (WT)] mice were obtained from Charles River Laboratories (Wilmington, Mass.). MBL null animals 21, back-crossed 8-10 generations onto the C57BL/6 background, were used as previously described^2,22. All procedures were reviewed and conducted in accordance with the Institute's Animal Care and Use Committee (IACUC). Experiments were performed according to the standards and principles set forth in the National Institutes of Health (Guide for the Care and Use of Laboratory Animals-DHHS publication no. (NIH) 85-23, revised 1985). Mice were made diabetic by a single injection of freshly prepared streptozotocin (STZ) solution (200 mg/kg body weight in citrate saline, pH 4.2, i.p., ALEXIS, Lausen, Switzerland)^23. The mice were housed in cages of four mice each and had unlimited access to water and standard mouse chow. Three days after STZ injection and immediately before MI/R studies, the urine glucose was assessed with Glucostix (Diastix, Bayer, Elkhart, Ind.). Mice with urine glucose>500 mg/dl in both tests were presumed to be diabetic. […]
(§4) Hearts were excised and fixed in 10% formalin PBS at 4° C. overnight. […] Serum troponin I concentrations were measured as an index of myocardial cell death using a commercially available ELISA kit (Life Diagnostics, West Chester, Pa.)^26.

diabetic WT mice [4] = assay: Serum troponin I concentration after MI/R (ELISA); conditions: insulin-treated diabetic animals vs non-treated diabetic WT mice; 15 min ischemia, 4 h reperfusion
Protocol: as §3, §4

diabetic WT mice [5] = assay: Neutrophil infiltration into the myocardium following MI/R (Ly-6G staining, infrared imaging); conditions: diabetic WT mice treated with insulin; 15 min ischemia, 4 h reperfusion
Protocol: as §3, with “diabetic. A group of STZ-injected mice was intensively treated with Lantus insulin (Sanofi-Aventis, Bridgewater, N.J.) to rule out any potentially cardiotoxic effects of STZ. Dependent on the individual daily urine glucose, 2-6 IU of insulin was injected (i.p.) daily.” for “diabetic.”

diabetic WT mice [6] = assay: Cardiac progenitor cell (CPC) numbers in heart sections (SCF R/c-kit staining); conditions: diabetic WT mice treated with insulin, two weeks of diabetes
Protocol: as §3, with “diabetic. A group of STZ-injected mice was intensively treated with Lantus insulin (Sanofi-Aventis, Bridgewater, N.J.) to rule out any potentially cardiotoxic effects of STZ. Dependent on the individual daily urine glucose, 2-6 IU of insulin was injected (i.p.) daily.” for “diabetic.”

## insulin
Diabetic WT mice [1]
  cardiac function (ejection fraction) following MI/R: prevented loss of cardiac function following MI/R
Diabetic WT mice [2]
  diabetic cardiomyopathy as measured by long and short axis measurements via echocardiography: protected diabetic WT mice from diabetic cardiomyopathy
Diabetic WT mice [3]
  diabetic cardiomyopathy / hypertrophic remodeling by heart/body weight ratios: protected diabetic WT mice from diabetic cardiomyopathy
Diabetic WT mice [4]
  serum troponin I concentrations after MI/R: significantly reduced
Diabetic WT mice [5]
  inflammatory response (neutrophil infiltration into cardiac tissue) after MI/R: attenuated the inflammatory response
Diabetic WT mice [6]
  loss of cardiac progenitor cells (CPC) in diabetes: reversed this effect
